Source: patent publication US12594276B2, “Inhibitors of human immunodeficiency virus replication” (ViiV Healthcare UK (No.5) Limited, priority 2024, dated 2026)

Assays:
[1] = system: recombinant NL4-3 virus (nef section replaced with Renilla luciferase gene) in MT-2 cells; assay: HIV cell culture assay (antiviral activity, luciferase readout); format: cell-based; conditions: Renilla, NL43, MT-2 cells infected for 4-5 days with recombinant NL4-3 Renilla luciferase virus
Summary of the method: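 EC50 was derived by median-effect fitting of Renilla luciferase signal from MT-2 cells. These cells were infected for 4–5 days with NL4-3 reporter virus (nef partly replaced by luciferase; made in 293T cells) in the presence of serially diluted compound. Activity was quantified with a live-cell luciferase substrate.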

[2] = Compound cytotoxicity, XTT-based colorimetric assay; format: cell-based; conditions: human; uninfected MT2 cells, day 4, XTT; read-out: CC50
Summary of the method: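 CC50 derived from XTT colorimetric signal measured on day 4 in MT2 cells that were not infected. All other steps followed the antiviral assay protocol.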

Cc1cc(C2(F)CCC(F)(F)CC2)nc2nc([C@H](Cc3cc(F)cc(F)c3)NC(=O)Cn3nc(C4CC4)c4c3C[C@@H]3C[C@H]43)n(-c3ccc(Cl)c4c(NS(C)(=O)=O)nn([C@H](C)CN5C[C@@H](C)O[C@@H](C)C5)c34)c(=O)c12 (relative stereo) [Example 730, N-[(1S)-1-[(3P)-3-{4-chloro-1-[(2R)-1-[(2R,6S)-2,6-dimethylmorpholin-4-yl]propan-2-yl]-3-methanesulfonamido-1H-indazol-7-yl}-5-methyl-4-oxo-7-(1,4,4-trifluorocyclohexyl)-3H,4H-pyrido[2,3-d]pyrimidin-2-yl]-2-(3,5-difluorophenyl)ethyl]-2-[(2R*,4R*)-9-cyclopropyl-7,8-diazatricyclo[4.3.0.0^2,^4]nona-1(6),8-dien-7-yl]acetamide]
EC50 [1]: 0.032 nM
CC50 at 4 days [2]: > 20 nM

Cc1cc(C2CCC(F)(F)CC2)nc2nc([C@H](Cc3cc(F)cc(F)c3)NC(=O)Cn3nc(C4CC4)c4c3C[C@@H]3C[C@H]43)n(-c3ccc(Cl)c4c(NS(C)(=O)=O)nn([C@H](C)CN5C[C@H](F)C[C@H](F)C5)c34)c(=O)c12 (relative stereo) [Example 732, N-[(1S)-1-[(3P)-3-{4-chloro-1-[(2R)-1-[(3R,5S)-3,5-difluoropiperidin-1-yl]propan-2-yl]-3-methanesulfonamido-1H-indazol-7-yl}-7-(4,4-difluorocyclohexyl)-5-methyl-4-oxo-3H,4H-pyrido[2,3-d]pyrimidin-2-yl]-2-(3,5-difluorophenyl)ethyl]-2-[(2R*,4R*)-9-cyclopropyl-7,8-diazatricyclo[4.3.0.0^2,^4]nona-1(6),8-dien-7-yl]acetamide]
EC50 [1]: 0.013 nM
CC50 at 4 days [2]: > 20 nM

Cc1cc(C2CCC(F)(F)CC2)nc2nc([C@H](Cc3cc(F)cc(F)c3)NC(=O)Cn3nc(C4CC4)c4c3C[C@@H]3C[C@H]43)n(-c3ccc(Cl)c4c(NS(C)(=O)=O)nn([C@H](C)CN5CC(C)(C)OC(C)(C)C5)c34)c(=O)c12 (relative stereo) [Example 734, N-[(1S)-1-[(3P)-3-{4-chloro-3-methanesulfonamido-1-[(2R)-1-(2,2,6,6-tetramethylmorpholin-4-yl)propan-2-yl]-1H-indazol-7-yl}-7-(4,4-difluorocyclohexyl)-5-methyl-4-oxo-3H,4H-pyrido[2,3-d]pyrimidin-2-yl]-2-(3,5-difluorophenyl)ethyl]-2-[(2R*,4R*)-9-cyclopropyl-7,8-diazatricyclo[4.3.0.0^2,^4]nona-1(6),8-dien-7-yl]acetamide]
EC50 [1]: 0.038 nM
CC50 at 4 days [2]: > 20 nM

Cc1cc(C2(F)CCC(F)(F)CC2)nc2nc([C@H](Cc3cc(F)cc(F)c3)NC(=O)Cn3nc(C4CC4)c4c3C[C@@H]3C[C@H]43)n(-c3ccc(Cl)c4c(NS(C)(=O)=O)nn(CCN5CCCC5=O)c34)c(=O)c12 (relative stereo) [Example 738, N-[(1S)-1-[(3P)-3-{4-chloro-3-methanesulfonamido-1-[2-(2-oxopyrrolidin-1-yl)ethyl]-1H-indazol-7-yl}-5-methyl-4-oxo-7-(1,4,4-trifluorocyclohexyl)-3H,4H-pyrido[2,3-d]pyrimidin-2-yl]-2-(3,5-difluorophenyl)ethyl]-2-[(2R*,4R*)-9-cyclopropyl-7,8-diazatricyclo[4.3.0.0^2,^4]nona-1(6),8-dien-7-yl]acetamide]
EC50 [1]: 0.043 nM
CC50 at 4 days [2]: > 20 nM

Cc1cc(C2(F)CCC(F)(F)CC2)nc2nc([C@H](Cc3cc(F)cc(F)c3)NC(=O)Cn3nc(C4CC4)c4c3C[C@@H]3C[C@H]43)n(-c3ccc(Cl)c4c(NS(C)(=O)=O)nn(CCc5cccnc5)c34)c(=O)c12 (relative stereo) [Example 741, N-[(1S)-1-[(3P)-3-{4-chloro-3-methanesulfonamido-1-[2-(pyridin-3-yl)ethyl]-1H-indazol-7-yl}-5-methyl-4-oxo-7-(1,4,4-trifluorocyclohexyl)-3H,4H-pyrido[2,3-d]pyrimidin-2-yl]-2-(3,5-difluorophenyl)ethyl]-2-[(2R*,4R*)-9-cyclopropyl-7,8-diazatricyclo[4.3.0.0^2,^4]nona-1(6),8-dien-7-yl]acetamide]
EC50 [1]: 0.04 nM
CC50 at 4 days [2]: > 20 nM

Cc1cc(C2(F)CCC(F)(F)CC2)nc2nc([C@H](Cc3cc(F)cc(F)c3)NC(=O)Cn3nc(C4CC4)c4c3C[C@@H]3C[C@H]43)n(-c3ccc(Cl)c4c(NS(C)(=O)=O)nn([C@H](C)C(=O)N5C[C@@H](C)O[C@@H](C)C5)c34)c(=O)c12 (relative stereo) [Example 744, N-[(1S)-1-[(3P)-3-{4-chloro-1-[(2R)-1-[(2R,6S)-2,6-dimethylmorpholin-4-yl]-1-oxopropan-2-yl]-3-methanesulfonamido-1H-indazol-7-yl}-5-methyl-4-oxo-7-(1,4,4-trifluorocyclohexyl)-3H,4H-pyrido[2,3-d]pyrimidin-2-yl]-2-(3,5-difluorophenyl)ethyl]-2-[(2R*,4R*)-9-cyclopropyl-7,8-diazatricyclo[4.3.0.0^2,^4]nona-1(6),8-dien-7-yl]acetamide]
EC50 [1]: 0.017 nM
CC50 at 4 days [2]: > 20 nM

Cc1cc(C2(F)CCC(F)(F)CC2)nc2nc([C@H](Cc3cc(F)cc(F)c3)NC(=O)Cn3nc(C4CC4)c4c3C[C@@H]3C[C@H]43)n(-c3ccc(Cl)c4c(NS(C)(=O)=O)nn([C@@H](C)CN5C[C@@H](C)O[C@@H](C)C5)c34)c(=O)c12 (relative stereo) [Example 748, N-[(1S)-1-[(3P)-3-{4-chloro-1-[(2S)-1-[(2R,6S)-2,6-dimethylmorpholin-4-yl]propan-2-yl]-3-methanesulfonamido-1H-indazol-7-yl}-5-methyl-4-oxo-7-(1,4,4-trifluorocyclohexyl)-3H,4H-pyrido[2,3-d]pyrimidin-2-yl]-2-(3,5-difluorophenyl)ethyl]-2-[(2R*,4R*)-9-cyclopropyl-7,8-diazatricyclo[4.3.0.0^2,^4]nona-1(6),8-dien-7-yl]acetamide]
EC50 [1]: 0.024 nM
CC50 at 4 days [2]: > 20 nM

Cc1cc(C2(F)CCC(F)(F)CC2)nc2nc([C@H](Cc3cc(F)cc(F)c3)NC(=O)Cn3nc(C4CC4)c4c3C[C@@H]3C[C@H]43)n(-c3ccc(Cl)c4c(NS(C)(=O)=O)nn([C@H](C)C(=O)N5CC(C)(C)OC(C)(C)C5)c34)c(=O)c12 (relative stereo) [Example 750, N-[(1S)-1-[(3P)-3-{4-chloro-3-methanesulfonamido-1-[(2R)-1-oxo-1-(2,2,6,6-tetramethylmorpholin-4-yl)propan-2-yl]-1H-indazol-7-yl}-5-methyl-4-oxo-7-(1,4,4-trifluorocyclohexyl)-3H,4H-pyrido[2,3-d]pyrimidin-2-yl]-2-(3,5-difluorophenyl)ethyl]-2-[(2R*,4R*)-9-cyclopropyl-7,8-diazatricyclo[4.3.0.0^2,^4]nona-1(6),8-dien-7-yl]acetamide]
EC50 [1]: 0.028 nM
CC50 at 4 days [2]: > 20 nM

Cc1cc(C2(F)CCC(F)(F)CC2)nc2nc([C@H](Cc3cc(F)cc(F)c3)NC(=O)Cn3nc(C4CC4)c4c3C[C@@H]3C[C@H]43)n(-c3ccc(Cl)c4c(NS(C)(=O)=O)nn([C@@H](C)CN5C[C@H](F)C[C@H](F)C5)c34)c(=O)c12 (relative stereo) [Example 754, N-[(1S)-1-[(3P)-3-{4-chloro-1-[(2S)-1-[(3R,5S)-3,5-difluoropiperidin-1-yl]propan-2-yl]-3-methanesulfonamido-1H-indazol-7-yl}-5-methyl-4-oxo-7-(1,4,4-trifluorocyclohexyl)-3H,4H-pyrido[2,3-d]pyrimidin-2-yl]-2-(3,5-difluorophenyl)ethyl]-2-[(2R*,4R*)-9-cyclopropyl-7,8-diazatricyclo[4.3.0.0^2,^4]nona-1(6),8-dien-7-yl]acetamide]
EC50 [1]: 0.075 nM
CC50 at 4 days [2]: > 20 nM

CS(=O)(=O)Nc1nn(CCN2CCOC(C(F)F)C2)c2c(-n3c([C@H](Cc4cc(F)cc(F)c4)NC(=O)Cn4nc(C(F)F)c5c4C(F)(F)[C@@H]4C[C@H]54)nc4nc(C5CCC(F)(F)CC5)ccc4c3=O)ccc(Cl)c12 (stereo partly drawn) [Example 187, N-[(1S)-1-[(3P)-3-(4-chloro-1-{2-[2-(difluoromethyl)morpholin-4-yl]ethyl}-3-methanesulfonamido-1H-indazol-7-yl)-7-(4,4-difluorocyclohexyl)-4-oxo-3H,4H-pyrido[2,3-d]pyrimidin-2-yl]-2-(3,5-difluorophenyl)ethyl]-2-[(2S,4R)-9-(difluoromethyl)-5,5-difluoro-7,8-diazatricyclo[4.3.0.0^2,4]nona-1(6),8-dien-7-yl]acetamide]
EC50 [1]: 0.032 nM
CC50 at 4 days [2]: > 50 nM

CC1(C)CN(CCn2nc(NS(C)(=O)=O)c3c(Cl)ccc(-n4c([C@H](Cc5cc(F)cc(F)c5)NC(=O)Cn5nc(C(F)F)c6c5C(F)(F)[C@@H]5C[C@H]65)nc5nc(C6CCC(F)(F)CC6)ccc5c4=O)c32)CC(C(F)(F)F)O1 (stereo partly drawn) [Example 189]
EC50 [1]: 0.035 nM
CC50 at 4 days [2]: > 50 nM

CS(=O)(=O)Nc1nn(CCN2CCC(F)(C(F)(F)F)C2)c2c(-n3c([C@H](Cc4cc(F)cc(F)c4)NC(=O)Cn4nc(C(F)F)c5c4C(F)(F)[C@@H]4C[C@H]54)nc4nc(C5CCC(F)(F)CC5)ccc4c3=O)ccc(Cl)c12 (stereo partly drawn) [Example 191, N-[(1S)-1-[(3P)-3-(4-chloro-1-{2-[3-fluoro-3-(trifluoromethyl)pyrrolidin-1-yl]ethyl}-3-methanesulfonamido-1H-indazol-7-yl)-7-(4,4-difluorocyclohexyl)-4-oxo-3H,4H-pyrido[2,3-d]pyrimidin-2-yl]-2-(3,5-difluorophenyl)ethyl]-2-[(2S,4R)-9-(difluoromethyl)-5,5-difluoro-7,8-diazatricyclo[4.3.0.0^2,^4]nona-1(6),8-dien-7-yl]acetamide]
EC50 [1]: 0.024 nM
CC50 at 4 days [2]: > 50 nM
